# Reference: patent US11325892B2, “Compounds and methods for treating cancer” (Mayo Foundation for Medical Education and Research, priority 2014, dated 2022)
# pIC50: −log10 of the molar value. Where two headings read alike, the source gives them in different places.
# Legend:
# Assay type in all cases: cell-based
# [1] = test system: A498, ACHN, and Caki1 cell lines; experiment: Oleic acid (OA) rescue assay of cell proliferation in ccRCC cells; conditions: EC50 dose of compound with OA (5 μg/μL); all three cell lines
# Description: (§1) Cells were seeded at 5,000 cells/well in clear-bottom 96-well plates in triplicate in Maintenance Media. Drug treatment was applied at a concentration of 1:1000 in reduced serum (3%) Maintenance Media. After 72 hours, cells were washed with PBS, and stored at −80° C. prior to analysis using CyQuant® Proliferation Analysis Kit (Invitrogen) as per manufacturers' protocol for relative fluorescence units. Alternatively, cells were plated 2×10^5/well in 12-well plates (Midwest Scientific) in triplicate prior to drug treatment. After 120 hour treatment, cell number was established using a Coulter Particle Counter (Beckman). Or, cells were plated (0.5 or 1×10^5/well) in 24-well plates (Midwest Scientific), 3×. After 72 hour treatment, cell number established using Coulter Particle Counter (Beckman). Oleic acid-albumin (Sigma Aldrich) was added to media at 5 μM, and was applied adjuvant to drug treatment. Drug stocks were prepared in DMSO (Sigma) at 1000×. EC50 dosing per cell line was calculated using CalcuSyn® analytical software.
# A498, ACHN, and Caki1 cell lines were treated with the EC50 dose of each MF-438, ChemBL375265, SSI-1, SSI-4, SSI-3, and SSI-2 with or without concomitant application of OA (5 μg/μL). […] Representative images of A498 cell morphology and density treated with each compound +/−OA are shown in (FIG. 2B).
# [2] = test system: SNU449 HCC cells; experiment: SNU449 cell proliferation (cellular DNA, Hoechst); conditions: Homo sapiens
# Description: SNU449 HCC cells were plated at 20,000 cells/well in 12-well plates. The next day, cells were treated with SSI-4, sorafenib or sorafenib plus SSI-4 at the indicated doses. […] On day 5, cells were frozen, DNA isolated and quantitated by […] (Hoechst reagent) in a spectrophotometer. Cellular DNA is directly proportional to cell number and is commonly used as a measure of cell number. All doses are in replicates of three with the mean +/−standard deviation determined.
# [3] = test system: HK2, a transformed renal epithelial cell line; experiment: High-throughput proliferative screen, non-cancerous cells
# Description: as §1
# In order to identify potential SCD1 inhibitors, a high-throughput proliferative-based screening method was used, with four ccRCC cell lines including A498, ACHN, Caki1, and Caki2. The SCD1 inhibitor MF-438 was included as a positive control. Known compounds ChemBL375265 (Liu G, Lynch J K, Freeman J, et al. Discovery of potent, selective, orally bioavailable stearoyl-CoA desaturase 1 inhibitors. Journal of medicinal chemistry. Jun. 28, 2007; 50(13): 3086-3100) (SetA.100) and SAR707 (Voss M D, Zoller G, Matter H, et al. Discovery and pharmacological characterization of SAR707 as novel and selective small molecule inhibitor of stearoyl-CoA desaturase (SCD1). European journal of pharmacology. May 5, 2013; 707(1-3): 140-146) (TC03.100) were included as single-blinded positive controls, and are indicated with an asterisk (*). […]
# [4] = test system: kidney cancer cells; experiment: Combination with mTor inhibitor temsirolimus, cell proliferation; conditions: different concentrations with 0, 0.1, 1, and 10 nM temsirolimus
# [5] = test system: ATF6-UPRE luciferase reporter in A498 and ACHN cells; experiment: ATF6-UPRE luciferase reporter assay; conditions: EC50 dose, 24H; both cell lines A498 and ACHN; completely blocked with OA
# Description: A498 and ACHN cells were transiently transfected with p5×ATF6-GL3 UPR luciferase reporter (Addgene plasmid#11976) and pRL-CMV-renilla (Promega) using Lipofectamine 2000 (Invitrogen). Cells were treated as indicated for 24H, prior to collection and analysis using Promega Dual Luciferase assay kit per manufacturer's specifications. Luciferase activity was measured using Veritas Luminometer (Promega); and results are reported as relative luminescence.
# (§2) Activating transcription factor 6 (ATF6) is a key regulator of the unfolded protein response (UPR) that recognizes unfolded protein response elements (UPRE) in the promoter regions of several key mediators of the ER stress response, initiating their transcription (Wang Y, Shen J, Arenzana N, Tirasophon W, Kaufman R J, Prywes R. Activation of ATF6 and an ATF6 DNA binding site by the endoplasmic reticulum stress response. J Biol Chem. Sep. 1, 2000; 275(35):27013-27020). A498 and ACHN transfected with an ATF6-UPRE luciferase reporter were treated with the EC50 doses of ChemBL375265, SSI-1, SSI-4, SSI-3, and SSI-2 with or without OA supplementation were evaluated in order to determine whether the identified compounds could recapitulate activation of the UPR. […] Upregulation of the UPR markers BiP (heat shock 70 kDa protein, GRP78) and CHOP (damage inducible transcript 3, DDIT3) was evaluated by Western blot in A498 and ACHN cells treated with the EC50 doses of ChemBL375265, SSI-1, SSI-4, SSI-3, and SSI-2 with or without OA supplementation.
# [6] = test system: BiP and CHOP expression in A498 and ACHN cells; experiment: Western blot for UPR markers BiP and CHOP; conditions: EC50 dose; both cell lines; blocked with concomitant OA treatment
# Description: Protein extraction and western blot analysis was performed as previously described (Copland J A, Marlow L A, Kurakata S, et al. Novel high-affinity PPARgamma agonist alone and in combination with paclitaxel inhibits human anaplastic thyroid carcinoma tumor growth via p21WAF1/CIP1. Oncogene. Apr 13 2006; 25(16):2304-2317). Primary antibodies included SCD1 (Sigma-Aldrich, #HPA012107), BiP (Cell Signaling, #3183), CHOP (Cell Signaling, #2895), sXBP1(Santa Cruz Biotechnology, #sc-7160), PARP(Cell Signaling, #9542), and β-actin (Sigma-Aldrich, #A5441).
# as §2
smiles,measurement,setting,value
"CNC(=O)c1ccnc(NC(=O)N2CCC(Oc3ccccc3Cl)CC2)c1 [SSI-4, 2-{[4-(2-Chlorophenoxy)piperidine-1-carbonyl]amino}-N-methylpyridine-4-carboxamide]",rescue of cell proliferation with OA,[1],Near total rescue of cell proliferation
same,pIC50,"[2]; SNU-449, SNU449, read-out: IC50 (dose at which 50% of cell proliferation is inhibited)",8.49
same,reduction in cell proliferation,[3],approximately 20%
same,kidney cancer cell proliferation,[4],reduced kidney cancer cell proliferation
same,luciferase activity,[5],significant upregulation of luciferase activity
same,BiP and CHOP expression,[6],strongly induced both BiP and CHOP expression
CNC(=O)c1cc(Oc2ccc(NC(=O)Nc3ccc(Cl)c(C(F)(F)F)c3)cc2)ccn1 [sorafenib],pIC50,"[2]; SNU-449, read-out: IC50 (dose at which 50% of cell proliferation is inhibited)",5.70
